In paper PMC2881055, “Endocytic pathways mediating oligomeric Aβ42 neurotoxicity” (Molecular Neurodegeneration, 2010):

What was measured:
[1] = tested on: N2A cells; set-up: lethality to N2A cells: dose or concentration left out as unconfirmed; details: cited from earlier work
[2] = tested on: N2A cells; assay: oAβ42-induced neurotoxicity in N2A cells, with inhibitor or siRNA (CellTiter-Glo ATP assay); assay type: cell-based, mouse; set-up: effect on Aβ42 toxicity: dose or concentration left out as unconfirmed
Experimental: Small interfering RNA (siRNA) for the clathrin heavy chain (CLTC, SMARTpool L-004001-00-0005) and control Non-Targeting siRNA were purchased from Dharmacon. Cells were transfected at 20 pmol siRNA in 24-well culture plates using LipofectAmine 2000 according to vendor's recommended transfection protocol. A second transfection was done the next day. These transfected cells were then split and seeded on to 96-well plate in MEM with 10% FBS. 48 hours post-transfection, these cells were treated with oAβ42 for 24 hours.

[3] = tested on: N2A cells
Experimental: Mouse neuroblastoma, N2A cells (ATCC) were maintained in MEM (ATCC) supplemented with 10% FBS, 2 mM L-glutamine, 100 U/ml of penicillin, 100 ug/ml of streptomycin, as previously described. 5000 cells per well were plated on to 96-well plates 24 hours prior to treatment to allow attachment. Cells were then treated […] oAβ42 in DMEM medium without phenol red and with 1% N2 supplement (Invitrogen). At the end of the experiment (24 hours post-treatment), cell viability was assessed by relative cellular ATP levels using CellTiter-Glo assay kit (Promega) according to the manufacture's instruction. Statistical significance was established at p < 0.01 by One-way ANOVA with Tukey test for comparison in different groups.
N2A cells were treated with pharmacological inhibitors that block specific steps during endocytosis. […] Chlorpromazine (2 mM), genistein ([…]), PP2 (1 mM) were added to cell cultures at indicated concentrations 1 hr before oAβ42 treatment in DMEM with 1% N2 supplement. The final concentration of vehicle (DMSO) was 0.05% in all cultures.

[4] = tested on: neuroblastoma cell line; set-up: method as in PMID 3796890; details: cited from earlier work
[5] = tested on: SH-SY5Y cells; details: cited from earlier work
Text: (§1) Dynamin mediates both clathrin-dependent and -independent endocytosis (for review, [76]). We first used two pharmacological inhibitors to block the dynamin-dependent endocytic pathway, genistein (a general tyrosine kinase inhibitor) and PP2 (a Src family tyrosine kinase inhibitor). […] The result was consistent with previous reports that this agent protected from Aβ induced toxicity in cultured hippocampal neurons and SH-SY5Y cells.

[6] = tested on: cultured hippocampal neurons; details: cited from earlier work
Text: as §1

[7] = tested on: N2A cells; details: co-cultures of primary neurons and glia, and Neuro-2A cells (N2A); cited from earlier work
Text: Here we focus mainly on endocytic pathways in relation to oAβ42 toxicity in N2A cells.

CC(C)(C)n1nc(-c2ccc(Cl)cc2)c2c(N)ncnc21 [PP2]
lethality to N2A cells [1]: lethal | effect on Aβ42 toxicity ([2]; PP2 pre-treatment 1 hr before oAβ42, 24 hours, data not shown): decreased Aβ42 toxicity though to a lesser extent than genistein

CN(C)CCCN1c2ccccc2Sc2ccc(Cl)cc21 [chlorpromazine]
toxicity to N2A cells [3]: toxic | cell viability retained ([3]; N2A cells, 2 mM chlorpromazine, ATP-based CellTiter-Glo): 90% | effect on cells at higher concentration ([4]; 10^-4-10^-3 M): killed cells | effect on Ca++-mediated toxicity at lower concentration ([4]; 10^-6-10^-5 M): inhibited Ca^++-mediated toxicity | effect on oAβ42 neurotoxicity ([2]; 2 mM chlorpromazine added 1 hr before oAβ42, 24 hours, data not shown): failed to block

O=c1c(-c2ccc(O)cc2)coc2cc(O)cc(O)c12 [genistein]
protection from Aβ induced toxicity [5]: protected | protection from Aβ induced toxicity [6]: protected | IC50 ([1]; read-out: IC50, inhibition of growth of N2A cells, dose-dependent): 18 µM | effect on oAβ42-induced toxicity ([2]; pre-treated with 10 mM genistein for 1 hour, 10 μM oAβ42 for 24 hours, p < 0.01): significantly inhibited

oAβ42: Oligomer preparation of recombinant Aβ42 (rPeptide), formed in DMSO/Ham's F12 at 4°C for 24 hours
neurotoxicity of the oAβ42 preparation [7]: causes neurotoxicity
